Where two headings read alike, the source gives them in different places.
Key:
nitric oxide production = settings: cited from earlier work
TNF-α = settings: cited from earlier work
NF-κB activation = settings: cited from earlier work
topoisomerase II = settings: cited from earlier work
protein aggregation = test: In vitro Huntington Aggregation Assay; type: biochemical
IL-1β = settings: cited from earlier work
[1] = test system: heat shock proteins (HSPs); settings: cited from earlier work
microglia = settings: cited from earlier work
Hsp70 = type: cell-based
human leukemia HL-60 = settings: cited from earlier work; for rank order of potency: apoptosis induction in HL-60 and topoisomerase II inhibition, Nagase et al. 2003
[2] = test system: constitutive NO synthases; settings: cited from earlier work
inducible NO synthase = settings: cited from earlier work
[3] = Cellular toxicity / cytotoxicity; type: cell-based

N=C(N)NN [aminoguanidine]
IC50 (nitric oxide production): 16 µM

CC1=C(O)C(=O)C=C2C1=CC=C1[C@@]2(C)CC[C@@]2(C)[C@@H]3C[C@](C)(C(=O)O)CC[C@]3(C)CC[C@]12C [celastrol, reference compound]
inhibition of production of TNF-α (TNF-α): inhibits | IC50 (nitric oxide production): 0.23 µM | IC50 (NF-κB activation): 270 nM | concentration inhibiting topoisomerase II (topoisomerase II): sub-micromolar concentrations | inhibition of protein aggregation in the in vitro Huntington Aggregation assay (protein aggregation): potent inhibitor | inhibition of production of IL-1β (IL-1β): inhibits | concentration enhancing cellular HSP production [1]: sub-micromolar concentrations | inhibition of microglial activation (microglia): inhibits | Hsp70 generation (Hsp70; Dose 0.1 uM): .043 | Hsp70 generation (Hsp70; Dose 0.3 uM): .046 | Hsp70 generation (Hsp70; Dose 0.5 uM): .039 | Hsp70 generation (Hsp70; Dose 1.0 uM): .423 | Hsp70 generation (Hsp70; Dose 2.0 uM): 15.0 | Hsp70 generation (Hsp70; Dose 3.0 uM): 4.54 | Hsp70 generation (Hsp70; Dose 6 uM): .240 | Hsp70 generation (Hsp70; Dose 10 uM): .034 | rank order of potency (human leukemia HL-60): celastrol>etoposide>dihydrocelastrol | concentration inducing apoptosis (human leukemia HL-60; human leukemia HL-60 model): sub-micromolar concentrations | inhibition of constitutive NO synthases [2]: does not inhibit | inhibition of expression of inducible NO synthase (inducible NO synthase): inhibits

Cc1c(O)c(O)cc2c1CC=C1[C@@]2(C)CC[C@@]2(C)[C@@H]3C[C@](C)(C(=O)O)CC[C@]3(C)CC[C@]12C [dihydrocelastrol]
activity in inhibiting topoisomerase II compared with celastrol and etoposide (topoisomerase II): weaker activity | inhibition of protein aggregation in the in vitro Huntington Aggregation assay (protein aggregation): potent | Hsp70 generation (Hsp70; Dose 0.1 uM): .051 | Hsp70 generation (Hsp70; Dose 0.3 uM): .036 | Hsp70 generation (Hsp70; Dose 0.5 uM): .033 | Hsp70 generation (Hsp70; Dose 1.0 uM): .052 | Hsp70 generation (Hsp70; Dose 2.0 uM): .049 | Hsp70 generation (Hsp70; Dose 3.0 uM): .117 | Hsp70 generation (Hsp70; Dose 6 uM): 3.37 | Hsp70 generation (Hsp70; Dose 10 uM): .044 | rank order of potency (human leukemia HL-60): celastrol>etoposide>dihydrocelastrol | activity in inducing apoptosis compared with celastrol and etoposide (human leukemia HL-60; human leukemia HL-60 model): weaker activity

COC(=O)[C@]1(C)CC[C@]2(C)CC[C@]3(C)C4=CCc5c(cc(OC(C)=O)c(OC(C)=O)c5C)[C@]4(C)CC[C@@]3(C)[C@@H]2C1 [dihydropristimerin diacetate]
Hsp70 generation (Hsp70; Dose 0.1 uM): .038 | Hsp70 generation (Hsp70; Dose 0.3 uM): .048 | Hsp70 generation (Hsp70; Dose 0.5 uM): .042 | Hsp70 generation (Hsp70; Dose 1.0 uM): .049 | Hsp70 generation (Hsp70; Dose 2.0 uM): .047 | Hsp70 generation (Hsp70; Dose 3.0 uM): .049 | Hsp70 generation (Hsp70; Dose 6 uM): .246 | Hsp70 generation (Hsp70; Dose 10 uM): .273

COc1cc([C@@H]2c3cc4c(cc3[C@@H](O[C@@H]3O[C@@H]5CO[C@@H](C)O[C@H]5[C@H](O)[C@H]3O)[C@H]3COC(=O)[C@H]23)OCO4)cc(OC)c1O [etoposide]
rank order of potency (human leukemia HL-60): celastrol>etoposide>dihydrocelastrol

COC(=O)[C@]1(C)CC[C@]2(C)CC[C@]3(C)C4=CC=C5C(=CC(=O)C(O)=C5C)[C@]4(C)CC[C@@]3(C)[C@@H]2C1 [pristimerin, reference compound]
Hsp70 generation (Hsp70; Dose 0.1 uM): .30 | Hsp70 generation (Hsp70; Dose 0.3 uM): .056 | Hsp70 generation (Hsp70; Dose 0.5 uM): .331 | Hsp70 generation (Hsp70; Dose 1.0 uM): 2.84 | Hsp70 generation (Hsp70; Dose 2.0 uM): .094 | Hsp70 generation (Hsp70; Dose 3.0 uM): .035 | Hsp70 generation (Hsp70; Dose 6 uM): .033 | Hsp70 generation (Hsp70; Dose 10 uM): 1.25

dihydrocelastrol diacetate
cytotoxicity compared with celastrol [3]: reduced cytotoxicity | inhibition of protein aggregation in the in vitro Huntington Aggregation assay (protein aggregation): potent | potency compared with celastrol (Hsp70): at least equivalent to celastrol in potency | Hsp70 generation (Hsp70; Dose 0.1 uM): .041 | Hsp70 generation (Hsp70; Dose 0.3 uM): .039 | Hsp70 generation (Hsp70; Dose 0.5 uM): .041 | Hsp70 generation (Hsp70; Dose 1.0 uM): .071 | Hsp70 generation (Hsp70; Dose 2.0 uM): 12.3 | Hsp70 generation (Hsp70; Dose 3.0 uM): 2.61 | Hsp70 generation (Hsp70; Dose 6 uM): .040 | Hsp70 generation (Hsp70; Dose 10 uM): .096

dihydropristimerin
inhibition of protein aggregation in the in vitro Huntington Aggregation assay (protein aggregation): potent | Hsp70 generation (Hsp70; Dose 0.1 uM): .050 | Hsp70 generation (Hsp70; Dose 0.3 uM): .039 | Hsp70 generation (Hsp70; Dose 0.5 uM): .037 | Hsp70 generation (Hsp70; Dose 1.0 uM): .043 | Hsp70 generation (Hsp70; Dose 2.0 uM): .042 | Hsp70 generation (Hsp70; Dose 3.0 uM): .045 | Hsp70 generation (Hsp70; Dose 6 uM): .102 | Hsp70 generation (Hsp70; Dose 10 uM): .034

Reference: patent US20040220267A1, “Derivatives of pentacyclic nortriterpene quinone methides as compounds useful in the treatment of inflammatory, neurodegenerative, and neoplastic diseases” (priority 2003, published 2004)
